How the values were obtained:
[1] = system: primary cilia; assay: In vitro cilia length, acetylated-α-tubulin immunofluorescence (Example 1); format: cell-based; conditions: after 16 hours, vs corresponding controls
Protocol: Immunocytochemistry. For the in vitro cilia length measurements, cells were grown on the Formvar® polymer, as mentioned above. Primary cilia consisting of acetylated microtubule structures were measured by direct immunofluorescence with acetylated-α-tubulin staining with 0, 2, 4, 8, 16, 24 and 32 hours of incubation with different concentrations (0.1-5 μg/mL) of CT-DAu-NPs or CT-PLGA-NPs. Likewise, materials without fenoldopam loading were used as corresponding controls for the CTNDDSs (cCT-DAu-NPs and cCT-PLGA-NPs) and also fenoldopam alone used. The cells were rinsed with sodium cacodylate buffer, fixed with 3% glutaraldehyde in 0.2 M sodium cacodylate buffer for 10 minutes, and permeabilized with 1% Triton-X in sodium cacodylate for 5 min. Acetylated-α-tubulin (1:10,000 dilution, Sigma) and the secondary antibodies were also diluted in 10% FBS to decrease the background florescence; FITC fluorescence secondary antibody (1:1000; Pierce, Inc.) was used. The cells were then washed three times for 5 minutes each with cacodylate buffer and mounted with DAPI (Vector laboratories). Confocal microscopic images were obtained using an inverted Nikon Eclipse Ti confocal microscope.

[2] = system: Pkd2 zebrafish; assay: Pkd2 morphant zebrafish ciliopathy model (Example 1); format: in vivo
Protocol: Animal Studies. All animal procedures were performed according to the University of California Irvine or Chapman University Animal Care and Use Committee Guidelines. To eliminate biases and subjective analyses, all animal studies were performed by double-blinded operators. Wild-type zebrafish AB strains were obtained from the Zebrafish International Resource Center. Embryos were injected with 1 mM morpholino oligos (GeneTools) at the 1-2 cell stage and cultured at 28.5° C. in sterile egg water. The following morpholino sequences were used: control scrambled MO: 5′-CCTCTTACCTCAGTTACAATTTATA-3′ (SEQ ID NO:1), Pkd2: 5′-AGGACGAACGCGACTGGGCTCATC-3′ (SEQ ID NO:2). The cardiac function was assessed by placing zebrafish on their dorsal axis to examine the relative locations of the ventricle and bulbus arteriosus, blood circulation and the heartbeat. Measurements of blood flow characteristics and heart parameters were performed using a Nikon Eclipse Ti microscope. NIS-Elements High Content AR 4.30.02 (Nikon) was used for the live tracking of the speed and acceleration of a single blood cell.

[3] = Pharmacokinetics of fenoldopam in mice (Example 1); format: in vivo, mouse; conditions: 30-minute infusion vs bolus of fenoldopam-loaded CTNDDS
Protocol: The pharmacokinetics of different NPs treated mice were studied. […] All drugs were extracted from plasma samples and HPLC analysis performed. In the biodistribution studies, whole organs from the fluorescent-labelled NPs treated mice (heart, kidney, liver, spleen and lung) were collected, homogenized and measured for fluorescence intensity to assess the amount of NP distribution in different organs at 24- and 72-hours after treatments. For the in vivo toxicity studies, 200 μL of blood samples were collected from different treatments (PBS, CT-DAu-NPs or CT-PLGA-NPs). Biochemistry was performed using biochemical analyzer (VetScan VS2).

[4] = system: LLC-PK1 cells; assay: Intracellular and ciliary Ca2+ and NO imaging under flow or magnetic field (Example 2); format: cell-based, porcine; conditions: 5HT6-mCherry-G-GECO1.0, single cell single cilium
Protocol: Cells were grown as monolayer on glass-bottomed plates to enable live microscopy imaging. […] For intracellular NO measurements, cells were loaded with 20 μM DAF-FM (Cayman Chemical) for 30 minutes at 37° C. […] Fluid shear stress was then applied to cells through […] peristaltic pumps with an inlet and outlet setup. The fluid was perfused through cell monolayers at a sub-minimal shear stress of 0.5 dyn/cm^2. […] An alnico cylindrical magnet (VWR International, PA) was used to oscillate a primary cilium. This 100-gram AlNiCo magnet produced a permanent magnetic field of 1.35 T. Once a cilium was placed on the specimen holder and in the plane of view, the magnet was mounted on the top of an inverted Nikon Ti-E microscope. The magnet was then mechanically moved with an oscillation frequency of 1.6 Hz. The movement of cilia by the magnetic field was continuously recorded for the duration of the experiment. To examine how much force the magnetic field generated onto a cilium, we calculated the movement of cilia in response to the oscillating magnetic field (Supplement). […] The shear stress ranged from 0.01 to 1.0 dyn/cm^2 and was accurately measured and controlled at all times. […] Approximately 15-20 cilia were analysed for each treatment using different fluorescence filters. […] The GFP/mCherry ratios were also calculated using Nikon tracking software.

SMILES: Oc1ccc(C2CNCCc3c2cc(O)c(O)c3Cl)cc1 (stereo not shown) [Fenoldopam, fenoldopam]
- cilia length [1]: significantly increased cilia length
- tolerability of bolus injection [2]: tachycardia-associated death
- total plasma concentration of fenoldopam (area under the curve, one hour) [3]: significantly higher
- intraciliary and cytosolic Ca^2+ signalling [4]: induced less of an increase in the intraciliary Ca^2+ signalling
